System: different microbes (Bacillus cereus, Staphylococcus aureus, Pseudomonas aeruginosa, Escherichia coli, Aspergillus flavus, Chrysosporium keratinophilum)
Test: Antimicrobial testing, agar plate disc-diffusion method
Type: cell-based
Settings: screened against gram-positive and gram-negative bacteria and fungi; result in words only, no inhibition zones printed
Protocol: The agar plate disc-diffusion method was applied. Sterilized filter papers (6 mm in diameter) were wetted with 10 μL of a solution of 4-(4,5-bis(4-bromophenyl)-2-(4-chlorophenyl)-1H-imidazol-1-yl)butanoic acid (V) to be tested, containing 10 mg/mL in DMSO, and the discs were allowed to air dry. The discs were then placed onto the surface of agar plates (nutrient agar for bacteria and Sabouraud's dextrose agar for fungi) seeded with the test organism. Each plate contained 15 mL of the agar medium, previously seeded with 0.2 mL of the broth culture of each organism pregrown for 18 hours. The plates were incubated at 37° C. for 48 hours, and 72 hours for fungi. The inhibition zones was measured in mm. Discs impregnated with DMSO were used as a control, and its inhibition zone was subtracted from the tested compound actual inhibition zone.

O=C(O)CCCn1c(-c2ccc(Cl)cc2)nc(-c2ccc(Br)cc2)c1-c1ccc(Br)cc1 [V, 4-(4,5-bis(4-bromophenyl)-2-(4-chlorophenyl)-1H-imidazol-1-yl)butanoic acid]
antimicrobial activities against different microbes: excellent antimicrobial activities
